The text below walks through data of US20240139149A1, “THERAPEUTIC USES OF UROLITHIN DERIVATIVES” (Vandria SA, priority 2022, published 2024).

In the test the test system is human CD8+ T cells. Nature of the test: Human T cells stimulated with αCD3/αCD28 in presence of UA. The class given is cell-based. As for the experimental part:
Splenic murine T cells were isolated from mice aged 6-20 weeks by negative selection with EasySep mouse T cell isolation kit (Stem cell) according to the manufacturer's instructions. To monitor T cell proliferation, purified T cells were loaded with CellTrace Violet (C34557 ThermoFisher Scientific). T cell activation was initiated using αCD3/CD28 activation beads (11456D; ThermoFisher Scientific) at a ratio of 25 μl dynabeads per 0.5×106 T-cells. Cells were activated with 25-50 μM Urolithin A (Tocris) or DMSO in T cell activation Medium (RPMI (ThermoFisher Scientific) 10% FBS (South America origin), 10 mM Hepes (Sigma), 1×Non-Essential Amino Acid, 1 mM Sodium Pyruvate, 50 µM β-Mercaptoethanol, 100 U/mL penicillin, 100 μg/mL streptomycin and 2 mM Glutamax (ThermoFisher Scientific) for the indicated durations. In selected experiments, cells were stimulated in the presence of inhibitors, namely TCFli (ICG-001; SelleckChem; […]) and PGC-lai (SR-18292, Sigma-Aldrich; […]). For subsequent analysis, activating beads were magnetically removed prior antibody staining. For human T cells, peripheral blood mononuclear cells were purified with a Ficoll-Paque (GE healthcare) gradient. T cells were enriched with EasySep Human T Cell Isolation Kit (StemCell) and activated with dynabead Human T-Activator CD3/CD28 for T Cell Expansion and Activation Kit (11131D; ThermoFisher Scientific), similar to murine T cell stimulation. When the subsequent activation and expansion of CAR T cells was studied, plates were coated with 1 μg/mL anti-human CD3 (αCD3; clone OKT3) and thawed PBMC were cultivated with […] anti-human CD28 (αCD28; 15E8, both Miltenyi Biotec) containing media for three days. (NutriT media (4Cell® Nutri-T media (Sartorius) containing 0.5% penicillin/streptomycin) supplemented with IL-7 (25 U/mL) and IL-15 […] (all Miltenyi Biotec)).
Tumors were minced and digested with Tumor & Tissue Dissociation Reagent (BD Horizon) for 30 min. The remaining organ pieces were filtered through a 70 µm cell strainer. Cells were then washed with PBS 1% BSA and 2 mM EDTA. […]

In the case of `O=c1oc2cc(O)ccc2c2ccc(O)cc12` [UA, Urolithin A], where the note is “after 48 hours”, the “TCF1 expression in human CD8+ T cells” value is “increased” and the “mitochondrial membrane potential of human CD8+ T cells” value is “decreased”. Further, the “frequency of human TSCM cells (CD45RA+CCR7HiCD62L+CD95+CD8+)” value (five out of five individual donors, 48 h) is reported as “increased the frequency”.
